According to PMC3750255, “Inhibition of Mycoplasma pneumoniae growth by FDA-approved anticancer and antiviral nucleoside and nucleobase analogs” (BMC Microbiology, 2013):
Converted amounts (≈) assume the structure as drawn.

How the values were obtained:
[1] = biological target: T1, TK in Mpn extracts (Mycoplasmoides pneumoniae, UniProt P75070); test: Inhibition of dT phosphorylation in Mpn protein extracts; format: biochemical; details: 10 μM tritium labelled thymidine; read-out: IC50 Mpn extracts
T1 construct: endogenous in cells; host or cells: Mycoplasma pneumoniae M129 total protein extract
T1 sequence (P75070 1-191): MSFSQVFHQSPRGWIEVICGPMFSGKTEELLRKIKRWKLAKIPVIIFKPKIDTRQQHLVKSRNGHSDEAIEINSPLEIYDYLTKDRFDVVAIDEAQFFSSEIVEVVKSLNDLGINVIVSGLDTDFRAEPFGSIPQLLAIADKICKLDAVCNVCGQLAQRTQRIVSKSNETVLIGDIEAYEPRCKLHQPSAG
Method: Both TFT and 5FdU are substrates of Mycoplasma and human TKs, as described above and earlier studies.
(§1) Thymidine kinase assay was performed using tritium labelled thymidine ([^3H]-dT) as substrate and various concentrations of the inhibitors essentially as previously described to determine the IC50 values of TFT and 5FdU.

[2] = system: Mpn wild type cells; test: Uptake and metabolism of tritium labelled natural nucleoside and nucleobases in the presence of analogs; format: cell-based, Mycoplasma pneumoniae
Method: The cells were harvested and analyzed essentially as described. Analogs used were dipyridamole, 6-thioguanine (6-TG), trifluorothymidine (TFT), gemcitabine (dFdC) and 5-fluorodeoxyuridine (5FdU). Total uptake is the percent of radioactivity recovered in the cells divided by total radioactivity added to the growth medium. Percent of acid insoluble (radioactivity found in DNA and RNA) was also calculated. These experiments were done more than three times and data are given as mean ± SD.

[3] = system: M. pneumoniae wild type (laboratory strain M129); test: Mpn growth inhibition in 96-well plates (growth index A450/A560), wild type strain; format: cell-based, Mycoplasma pneumoniae; details: for MIC (Mpn growth): as stated in the text, strain not specified, 90% growth inhibition
Method: A series dilution of each compound in Mycoplasma growth medium was added to Mpn cultures in 96-well plates. The plates were sealed and incubated at 37°C. Mpn growth was monitored by using growth index value e.g. the ratio of absorbance at 450 nm and 560 nm of the culture medium. Thirty nucleoside and nucleobase analogs and a nucleoside transporter inhibitor were included, and two Mpn strains, wild type and a thyA mutant (lacking TS activity), were used.
Nucleoside and nucleobase analogs were dissolved in dimethyl sulfoxide (DMSO) as stock solutions and diluted with Mpn culture medium to the desired concentration immediately prior to use.
Mpn laboratory strain M129 wild type and a thyA mutant strain [31] were used in this study. Mpn was cultured at 37°C in a CO2 incubator using 75 cm^2 tissue culture flasks containing 50 ml Hayflick’s medium, and harvested at day 4 when the medium color change was observed. The cells were harvested and the pellet was resuspended in 6 ml fresh medium and the cfu/ml was determined by serial dilution (10-fold) and plating on broth agar plate. Colonies was counted and cfu/ml was calculated.
Inhibition studies were performed in 96-well plates containing 200 μl Mpn culture (approximately 10^6 cfu ml^-1) in Hayflick’s medium and 200 μl each compound in series dilutions (2-fold) with the growth medium, with three to four replicas. The plates were sealed with clear adhesive sheets and incubated at 37°C incubator. Absorbance ratio at 450 nm and 560 nm was used as Mpn growth index, which was measured daily, and by visual detection for at least 8 days, as previously described. […] The MICs (minimal inhibitory concentration required to inhibit Mpn growth to 90%) were determined as the lowest concentration at which the growth index was ≈ 10% of the control values (at the time when the control culture medium color turned yellow), essentially as described.

[4] = biological target: T2, human TK2 (Homo sapiens, UniProt O00142); test: Thymidine kinase inhibition with [3H]-dT as substrate; format: biochemical; details: 10 μM tritium labelled thymidine
T2 construct: made in house
T2 sequence (O00142 34-265): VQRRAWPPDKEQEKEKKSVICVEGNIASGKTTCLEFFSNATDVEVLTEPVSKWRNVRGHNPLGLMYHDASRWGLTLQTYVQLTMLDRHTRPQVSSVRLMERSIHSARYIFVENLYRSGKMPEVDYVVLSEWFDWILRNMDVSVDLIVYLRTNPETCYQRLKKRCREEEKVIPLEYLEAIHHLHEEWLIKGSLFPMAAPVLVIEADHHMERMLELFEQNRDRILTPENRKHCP
Method: as §1

[5] = biological target: T3, human TK1 (Homo sapiens, UniProt P04183); test: as above; format: biochemical; details: 10 μM tritium labelled thymidine
T3 construct: made in house
T3 sequence (P04183 1-234): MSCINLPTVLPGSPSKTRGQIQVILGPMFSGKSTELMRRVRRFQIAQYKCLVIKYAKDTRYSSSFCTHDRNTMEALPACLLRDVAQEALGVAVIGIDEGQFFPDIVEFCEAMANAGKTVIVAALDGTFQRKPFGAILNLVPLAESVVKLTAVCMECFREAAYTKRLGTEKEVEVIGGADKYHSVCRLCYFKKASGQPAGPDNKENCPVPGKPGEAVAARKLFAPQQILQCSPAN
Method: as §1

[6] = biological target: T4, Ureaplasma TK (Ureaplasma parvum serovar 3, UniProt Q9PPP5); test: as above; format: biochemical; details: 10 μM tritium labelled thymidine
T4 construct: made in house
T4 sequence (Q9PPP5 1-223): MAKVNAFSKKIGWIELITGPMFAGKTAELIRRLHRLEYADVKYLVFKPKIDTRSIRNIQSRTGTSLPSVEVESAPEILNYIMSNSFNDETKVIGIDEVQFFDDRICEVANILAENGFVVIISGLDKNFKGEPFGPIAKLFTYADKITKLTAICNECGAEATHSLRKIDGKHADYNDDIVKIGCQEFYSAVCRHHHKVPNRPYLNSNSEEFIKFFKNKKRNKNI
Method: as §1

[7] = system: Mpn TK; test: TK activity in total protein extracts of Mpn cultured with TFT; format: cell-based, Mycoplasma pneumoniae; details: 10 μM TFT, 70 hours culture
Method: (§2) Total proteins were extracted from these cultures and used to determine the TK and TS activity.
(§3) Mpn wild type cells were cultured in the presence of [^3H]-dT and different concentrations of TFT. The cells were incubated at 37°C for 70 hours and harvested. The total uptake and incorporation of [^3H]-dT were analysed, and TK and TS activity were determined in total protein extracts.
(§4) To determine the effect of TFT on TK and TS activity, Mpn wild type cells were cultured in 75 cm^2 tissue culture flasks containing 50 ml medium, inoculated with 3 ml of stock culture (1 × 10^9 cfu/ml), in the presence of [^3H]-dT (1 μCi ml^-1) and different concentrations of TFT. After 70 hours at 37°C the cultures were harvested and divided to two aliquots, one was used to determine total uptake/metabolism of radiolabeled dT and total proteins were extracted from the other aliquot and used to measure TK and TS activity using [^3H]-dT and [5-^3H]-dUMP as substrates.

[8] = system: Mpn TS; test: TS activity in total protein extracts of Mpn cultured with TFT; format: cell-based; details: various concentrations of TFT, 70 hours culture
Method: as §2, §3, §4

[9] = 10 μM analog, 70 hours, 37°C, radioactivity in cells / total added
[10] = 10 μM analog, 70 hours, acid insoluble fraction / total in cells

## O=c1[nH]c(=O)n([C@H]2C[C@H](O)[C@@H](CO)O2)cc1C(F)(F)F [Trifluorothymidine (TFT), Trifluorothymidine]
[1]
  IC50: 9.1 ± 2.9 µM
[2]; 10 μM analog versus control
  Stimulation of [3H]-dT uptake: 2 fold
[2]; [9]
  [3H]-Ade Total uptake: 0.43±0.01%
  [3H]-Gua Total uptake: 0.19±0.02%
  [3H]-Hx Total uptake: 0.011± 0.001%
  [3H]-Ura Total uptake: 0.11±0.002%
  [3H]-dT Total uptake: 18.2±0.6%
[2]; [10]
  [3H]-Ade Incorporation: 48±2%
  [3H]-Gua Incorporation: 85±4%
  [3H]-Hx Incorporation: 67±1%
  [3H]-Ura Incorporation: 27±0.2%
  [3H]-dT Incorporation: 97.4±0.5%
[3]; listed as trifluorothymidine
  MIC (Mpn growth): approximately 2 μg ml^-1
[3]; listed as trifluorothymidine (TFT)
  MIC (Mpn growth): 1.8 µg/mL (≈ 6.08 µM)
[3]; minimal concentration producing 90% inhibition, wild type Mpn
  Wild type MIC: 1.8 µg/mL
[4]
  IC50: 80 ± 5.6 µM
[5]
  IC50: 9.7 ± 3.2 µM
[6]
  IC50: 12 ± 4.2 µM
[7]
  TK activity relative to controls: ~ 3 times
[8]
  TS activity (in words): unchanged
